{"source": "patent US20040259913A1", "about": "“Diamide invertebrate pest control agents” (priority 2002, published 2004)", "system": "beet armyworm (Spodoptera exigua)", "assay": "Test C: control of beet armyworm on corn (maize) plant, foliar spray", "format": "in vivo", "conditions": "sprayed at 50 ppm; corn (maize) plant pre-infested with 10-15 1-day-old larvae; visually rated as in Test A", "method": "Test compounds were formulated using a solution containing 10% acetone, 90% water and 300 ppm X-77® Spreader Lo-Foam Formula non-ionic surfactant containing alkylarylpolyoxyethylene, free fatty acids, glycols and isopropanol (Loveland Industries, Inc.), unless otherwise indicated. The formulated compounds were applied in 1 mL of liquid through a SUJ2 atomizer nozzle with ⅛ JJ custom body (Spraying Systems Co,) positioned 1.27 cm (0.5 inches) above the top of each test unit. All experimental compounds in this screen were sprayed at 250 ppm and replicated three times. After spraying of the formulated test compound, each test unit was allowed to dry for 1 hour and then a black, screened cap was placed on top. The test units were held for 6 days in a growth chamber at 25° C. and 70% relative humidity. Plant feeding damage was then visually assessed. For evaluating control of beet armyworm (Spodoptera exigua) the test unit consisted of a small open container with a 4-5-day-old corn (maize) plant inside. This was pre-infested with 10-15 1-day-old larvae on a piece of insect diet by use of a core sampler as described for Test A. Test compounds were formulated and sprayed at 50 ppm as described for Test A. The applications were replicated three times. After spraying, the test units were maintained in a growth chamber and then visually rated as described for Test A."}
{"smiles": "CC1=C(NC(=O)c2cc(C(F)(F)F)nn2-c2ncccc2Cl)C(C(=O)NC(C)C)CS1", "note": "(stereo not shown) [Compound 1, 1-(3-Chloro-2-pyridinyl)-N-[4,5-dihydro-2-methyl-4-[[(1-methylethyl)amino]carbonyl]-3-thienyl]-3-(trifluoromethyl)-1H-pyrazole-5-carboxamide]", "values": [{"measurement": "feeding damage (very good levels of plant protection)", "result": "≤ 20", "unit": "%"}]}
